What was measured:
Format in all cases: in vivo
Acyrthosiphon pisum = assay: Example 6 pea trial, Acyrthosiphon pisum (pea aphid) control; settings: appl. A
Text: Peas—Acyrthosiphon pisum (Pea Aphid)
Trial conducted on peas, variety Navarro, 4 replicates per plot. Each plot was at least 12 m^2, a water volume of 200 L water per ha was used for the application.
Insects present at the time of application A: 106 aphids per 20 shoots. The stage of the crop at application A was BBCH 75-77, and at application B, (14 DAA) BBCH 79-81.

[1] = tested on: Leptinotarsa decemlineata; assay: Example 8 Trial 1 potato, Leptinotarsa decemlineata (Colorado potato beetle) control; settings: appl. AB, 8 DAB
Text: Potatoes—Leptinotarsa decemlineata (Colorado Potato Beetle)—LEPTNDE
Trial 1: Potatoes, variety Lady Amarilla, 4 replicates per plot, each plot at least 25 m^2. A water volume of 200 L water/ha was used for each application. Two applications were made at a 14d interval.
Application made at the occurrence of the insects. Application A was made at Stage BBCH 36, application B was made 14 days later at Stage BBCH 51.
Insects present at the time of application: at App A 39/10 plants at App B in untreated: 35/10 plants.

[2] = tested on: Leptinotarsa decemlineata; assay: Example 8 Trial 2 potato, Leptinotarsa decemlineata (LEPTNDE) control; settings: appl. AB
Text: Trial 2: Potatoes, 4 replicates per plot, each plot at least 25 m^2. A water volume of 200 L water/ha was used for each application. Two applications were made at a 14d interval.
Application made at the occurrence of the insects. Application A was made at Stage BBCH 39-41, application B was made 14 days later at Stage BBCH 41-44.
Insects present at the time of application: at App A: 9/10 plants at App B in untreated: 44/10 plants

Myzus persicae = assay: Example 10 potato trial, Myzus persicae (green aphids, MYZUPE) control; settings: appl. AB
Text: Potatoes—Myzus persicae (Green Aphids)—MYZUPE
Potatoes, variety Agata, 4 replicates per plot. A water volume of 200 L water/ha was used for each application. Two applications were made at a 14d interval.
Application made at the occurrence of the insects. Application A was made at Stage BBCH 38-41, application B was made 14 days later at Stage BBCH 41-43.
Insects present at the time of application: at App A 93 aphids per 25 leaves at App B in untreated: 160 aphids per 25 leaves

Halyomorpha halys = assay: Example 13 egg trial, egg mass immersion bioassay on Halyomorpha halys; settings: for % Live instars emerged: egg mass immersion
Description: Halyomorpha halys were obtained from a lab strain that was mass reared for several generations from a field strain. Egg masses were provided at the same stage (2-3 days before hatching) in order to test same egg masses conditions.
Bioassay, consisting in egg masses immersion, was carried out dipping the egg masses by means of lab forceps for two second inside three different PA product concentrations (100 ppm, 50 ppm and 33 ppm), one treatment with a commercial standard (Trebon up, a.i., Etofenprox) and a treatment with only water (untreated Check) were performed. 4 replicates were performed (1 egg mass is considered 1 replicate).
Assessments were conducted at 1, 2, 4 days after application, egg mortality and larvae hatching from eggs were recorded, raw data were processed with ARM software. All the statistical procedures [Student-Newman-Keuls (SNK)], Anova and other calculation analysis were performed using the ARM 2020.0 software.

[3] = Halyomorpha halys, read-out: % Egg mortality

CCCCCCCCC(=O)O [PA, pelargonic acid]
COUINS (count of insects), 20 shoots (Acyrthosiphon pisum; 585 g/ha (0.9 L/ha), 3 DAA (1st column)): 31.44 % UNCK | COUINS (count of insects), 20 shoots (Acyrthosiphon pisum; 585 g/ha (0.9 L/ha), 3 DAA (2nd column)): 31.34 % UNCK | COUINS (count of insects), 20 shoots (Acyrthosiphon pisum; 585 g/ha (0.9 L/ha), 3 DAA (3rd column)): 30.01 % UNCK | COUINS (count of insects), 20 shoots (Acyrthosiphon pisum; 975 g/ha (1.5 L/ha), 3 DAA (1st column)): 34.03 % UNCK | COUINS (count of insects), 20 shoots (Acyrthosiphon pisum; 975 g/ha (1.5 L/ha), 3 DAA (2nd column)): 33.84 % UNCK | COUINS (count of insects), 20 shoots (Acyrthosiphon pisum; 975 g/ha (1.5 L/ha), 3 DAA (3rd column)): 35.76 % UNCK | COUINS (count of insects), 20 shoots (Acyrthosiphon pisum; 1300 g/ha (2.0 L/ha), 3 DAA (1st column)): 52.54 % UNCK | COUINS (count of insects), 20 shoots (Acyrthosiphon pisum; 1300 g/ha (2.0 L/ha), 3 DAA (2nd column)): 52.47 % UNCK | COUINS (count of insects), 20 shoots (Acyrthosiphon pisum; 1300 g/ha (2.0 L/ha), 3 DAA (3rd column)): 53.62 % UNCK | COUINS (count of insects), 20 shoots (Acyrthosiphon pisum; 2600 g/ha (4.0 L/ha), 3 DAA (1st column)): 65.75 % UNCK | COUINS (count of insects), 20 shoots (Acyrthosiphon pisum; 2600 g/ha (4.0 L/ha), 3 DAA (2nd column)): 65.86 % UNCK | COUINS (count of insects), 20 shoots (Acyrthosiphon pisum; 2600 g/ha (4.0 L/ha), 3 DAA (3rd column)): 65.31 % UNCK | COUINS # L1-L3/10 plants ([1]; 585 g/ha (0.9 L/ha)): 88.2 % UNCK | COUINS # L4/10 plants ([1]; 585 g/ha (0.9 L/ha)): 57.9 % UNCK | COUINS # L1-L3/10 plants ([1]; 975 g/ha (1.5 L/ha)): 17.6 % UNCK | COUINS # L4/10 plants ([1]; 975 g/ha (1.5 L/ha)): 57.9 % UNCK | COUINS # L1-L3/10 plants ([1]; 1300 g/ha (2.0 L/ha)): 82.4 % UNCK | COUINS # L4/10 plants ([1]; 1300 g/ha (2.0 L/ha)): 57.9 % UNCK | COUINS # L1-L3/10 plants ([1]; 2600 g/ha (4.0 L/ha)): 76.5 % UNCK | COUINS # L4/10 plants ([1]; 2600 g/ha (4.0 L/ha)): 68.4 % UNCK | COUINS # L1-L3/10 plants ([2]; 585 g/ha (0.9 L/ha), 7 DAA): 51.7 % UNCK | COUINS # L4/10 plants ([2]; 585 g/ha (0.9 L/ha), 7 DAA): 45 % UNCK | COUINS # L1-L3/10 plants ([2]; 585 g/ha (0.9 L/ha), 10 DAB): 68.6 % UNCK | COUINS # L4/10 plants ([2]; 585 g/ha (0.9 L/ha), 10 DAB): 64.2 % UNCK | COUINS Adults/10 plants ([2]; 585 g/ha (0.9 L/ha), 10 DAB): 48 % UNCK | COUINS # L1-L3/10 plants ([2]; 975 g/ha (1.5 L/ha), 7 DAA): 48.5 % UNCK | COUINS # L4/10 plants ([2]; 975 g/ha (1.5 L/ha), 7 DAA): 35 % UNCK | COUINS # L1-L3/10 plants ([2]; 975 g/ha (1.5 L/ha), 10 DAB): 76 % UNCK | COUINS # L4/10 plants ([2]; 975 g/ha (1.5 L/ha), 10 DAB): 77 % UNCK | COUINS Adults/10 plants ([2]; 975 g/ha (1.5 L/ha), 10 DAB): 55 % UNCK | COUINS # L1-L3/10 plants ([2]; 1300 g/ha (2.0 L/ha), 7 DAA): 70.9 % UNCK | COUINS # L4/10 plants ([2]; 1300 g/ha (2.0 L/ha), 7 DAA): 59.9 % UNCK | COUINS # L1-L3/10 plants ([2]; 1300 g/ha (2.0 L/ha), 10 DAB): 89.8 % UNCK | COUINS # L4/10 plants ([2]; 1300 g/ha (2.0 L/ha), 10 DAB): 86.2 % UNCK | COUINS Adults/10 plants ([2]; 1300 g/ha (2.0 L/ha), 10 DAB): 69 % UNCK | COUINS # L1-L3/10 plants ([2]; 2600 g/ha (4.0 L/ha), 7 DAA): 73.4 % UNCK | COUINS # L4/10 plants ([2]; 2600 g/ha (4.0 L/ha), 7 DAA): 80.9 % UNCK | COUINS # L1-L3/10 plants ([2]; 2600 g/ha (4.0 L/ha), 10 DAB): 93.4 % UNCK | COUINS # L4/10 plants ([2]; 2600 g/ha (4.0 L/ha), 10 DAB): 92.8 % UNCK | COUINS Adults/10 plants ([2]; 2600 g/ha (4.0 L/ha), 10 DAB): 78.9 % UNCK | COUINS, #/25 leaves (Myzus persicae; 585 g/ha (0.9 L/ha), 3 DAA): 38.8 % UNCK | COUINS, #/25 leaves (Myzus persicae; 585 g/ha (0.9 L/ha), 3 DAB): 68.8 % UNCK | COUINS, #/25 leaves (Myzus persicae; 585 g/ha (0.9 L/ha), 7 DAA): 48.7 % UNCK | COUINS, #/25 leaves (Myzus persicae; 585 g/ha (0.9 L/ha), 7 DAB): 68.4 % UNCK | COUINS, #/25 leaves (Myzus persicae; 585 g/ha (0.9 L/ha), 14 DAA): 52.3 % UNCK | COUINS, #/25 leaves (Myzus persicae; 585 g/ha (0.9 L/ha), 14 DAB): 73.4 % UNCK | COUINS, #/25 leaves (Myzus persicae; 975 g/ha (1.5 L/ha), 3 DAA): 42.9 % UNCK | COUINS, #/25 leaves (Myzus persicae; 975 g/ha (1.5 L/ha), 3 DAB): 72.6 % UNCK | COUINS, #/25 leaves (Myzus persicae; 975 g/ha (1.5 L/ha), 7 DAA): 51.2 % UNCK | COUINS, #/25 leaves (Myzus persicae; 975 g/ha (1.5 L/ha), 7 DAB): 72.4 % UNCK | COUINS, #/25 leaves (Myzus persicae; 975 g/ha (1.5 L/ha), 14 DAA): 54.9 % UNCK | COUINS, #/25 leaves (Myzus persicae; 975 g/ha (1.5 L/ha), 14 DAB): 73.2 % UNCK | COUINS, #/25 leaves (Myzus persicae; 1300 g/ha (2.0 L/ha), 3 DAA): 61.9 % UNCK | COUINS, #/25 leaves (Myzus persicae; 1300 g/ha (2.0 L/ha), 3 DAB): 86.1 % UNCK | COUINS, #/25 leaves (Myzus persicae; 1300 g/ha (2.0 L/ha), 7 DAA): 63.9 % UNCK | COUINS, #/25 leaves (Myzus persicae; 1300 g/ha (2.0 L/ha), 7 DAB): 86.1 % UNCK | COUINS, #/25 leaves (Myzus persicae; 1300 g/ha (2.0 L/ha), 14 DAA): 67.3 % UNCK | COUINS, #/25 leaves (Myzus persicae; 1300 g/ha (2.0 L/ha), 14 DAB): 86.5 % UNCK | COUINS, #/25 leaves (Myzus persicae; 2600 g/ha (4.0 L/ha), 3 DAA): 68.4 % UNCK | COUINS, #/25 leaves (Myzus persicae; 2600 g/ha (4.0 L/ha), 3 DAB): 92.6 % UNCK | COUINS, #/25 leaves (Myzus persicae; 2600 g/ha (4.0 L/ha), 7 DAA): 70.8 % UNCK | COUINS, #/25 leaves (Myzus persicae; 2600 g/ha (4.0 L/ha), 7 DAB): 92.5 % UNCK | COUINS, #/25 leaves (Myzus persicae; 2600 g/ha (4.0 L/ha), 14 DAA): 74.2 % UNCK | COUINS, #/25 leaves (Myzus persicae; 2600 g/ha (4.0 L/ha), 14 DAB): 92.4 % UNCK | mortality at 33 ppm (Halyomorpha halys; [3]): 17% | mortality at 50 ppm (Halyomorpha halys; [3]): 46% | mortality at 100 ppm (Halyomorpha halys; [3]): 65% | % Live instars emerged (Halyomorpha halys; 33 ppm ai (3.3 ml/l)): 47% | % Live instars emerged (Halyomorpha halys; 50 ppm ai (5 ml/l)): 18% | % Live instars emerged (Halyomorpha halys; 100 ppm ai (10 ml/l)): 5%
